Test results reported in article PMC7686313, “Phase 1 study of mTORC1/2 inhibitor sapanisertib (TAK-228) in advanced solid tumours, with an expansion phase in renal, endometrial or bladder cancer” (British Journal of Cancer, 2020).
Read-outs that look alike come from different tables or passages of the source.

Assay: Plasma pharmacokinetics (LC-MS/MS)
Assay type: in vivo, human
Conditions: for Cmax / AUC(0-t) / half-life / Tmax: human, plasma, oral; for half-life: read-out: t½ (converted); for Tmax: read-out: Tmax, median
Method: Peripheral blood was collected serially to quantify plasma levels of sapanisertib for PK analysis via validated liquid chromatography tandem mass spectrometry with an assay range of 1–1000 ng/mL (MicroConstants, San Diego, CA), during both dose-escalation and expansion phases. Blood samples were collected before each dose and 0.5, 1, 2, 4, 8 and 24 h after dosing on cycle 1, day 1 and cycle 2, day 1, in the dose-escalation phase. In the expansion phase, samples were collected predose and 2, 4 and 6 h postdose on cycle 1, day 1, and then predose and 2 h postdose on day 8, 15 or 22 of cycle 1.

[1] = 6 mg, cycle 2, day 1, QDx3dQW 6 mg
[2] = 7 mg, cycle 2, day 1, QDx5dQW 7 mg

## CC(C)n1nc(-c2ccc3oc(N)nc3c2)c2c(N)ncnc21 [Sapanisertib]
Any of the schedules
  Plasma accumulation with repeat dosing: did not accumulate in plasma to any appreciable extent
Cycle 1, day 1, 2 mg
  Tmax, median: 2.0 h
Cycle 1, day 1, 4 mg
  Tmax, median: 2.0 h
Cycle 1, day 1, 6 mg
  AUC0–last [%CV]: 124.3 (NA) ng*h/mL
  t½: 6.8 h
Cycle 1, day 1, 7 mg
  Tmax, median: 1.5 h
Cycle 1, day 1, 9 mg
  Tmax, median: 1.1 h
Cycle 1, day 1, 12 mg
  Tmax, median: 2.0 h
Cycle 1, day 1, 15 mg
  Tmax, median: 2.0 h
Cycle 1, day 1, 16 mg
  AUC0–last [%CV]: 124.9 (NA) ng*h/mL
Cycle 2, day 1, QD 2 mg
  Tmax, median: 2.0 h
Cycle 2, day 1, QD 6 mg
  Tmax, median: 2.0 h
Cycle 2, day 1, QDx3dQW 6 mg
  t½: 9.1 (NA) h
Cycle 2, day 1, QDx3dQW 16 mg
  t½: 6.6 (2.29) h
Cycle 2, day 1, QDx5dQW 10 mg
  Tmax, median: 2.0 h
Cycle 2, day 1, QDx5dQW 13 mg
  Tmax, median: 2.0 h
Cycle 2, day 1, QW 7 mg
  Cmax [%CV]: 65.8 (NA) ng/mL
  Tmax, median: 1 h
Cycle 2, day 1, QW 10 mg
  Cmax [%CV]: 36.2 (NA) ng/mL
Cycle 2, day 1, QW 15 mg
  Tmax, median: 2.0 h
Cycle 2, day 1, QW 40 mg
  Tmax, median: 2.0 h
2 mg, cycle 1, day 1, 2 mg
  Cmax: 13.5 ng/mL
2 mg, cycle 1, day 1, 2 mg, read-out: AUC0–last [%CV]
  AUC(0-t): 65.4 ng·h/mL
2 mg, cycle 2, day 1, QD 2 mg
  Cmax: 15.6 ng/mL
  half-life: 8.1 h
2 mg, cycle 2, day 1, QD 2 mg, read-out: AUC0–24h [%CV]
  AUC(0-t): 185 ng·h/mL
4 mg, cycle 1, day 1, 4 mg
  Cmax: 19.1 ng/mL
  half-life: 7.1 h
4 mg, cycle 1, day 1, 4 mg, read-out: AUC0–24h [%CV]
  AUC(0-t): 178 ng·h/mL
4 mg, cycle 1, day 1, 4 mg, read-out: AUC0–last [%CV]
  AUC(0-t): 63.2 ng·h/mL
4 mg, cycle 2, day 1, QD 4 mg
  Cmax: 20.3 ng/mL
  Tmax: 3.8 h
  half-life: 10.3 h
4 mg, cycle 2, day 1, QD 4 mg, read-out: AUC0–24h [%CV]
  AUC(0-t): 281 ng·h/mL
4 mg, cycle 2, day 1, QD 4 mg, read-out: AUC0–last [%CV]
  AUC(0-t): 61.9 ng·h/mL
6 mg, cycle 1, day 1, 6 mg
  Cmax: 50.8 ng/mL
6 mg, cycle 1, day 1, 6 mg, read-out: AUC0–24h [%CV]
  AUC(0-t): 354 ng·h/mL
6 mg, cycle 2, day 1, QD 6 mg
  Cmax: 36.9 ng/mL
  half-life: 7.3 h
6 mg, cycle 2, day 1, QD 6 mg, read-out: AUC0–24h [%CV]
  AUC(0-t): 327 ng·h/mL
[1]
  Cmax: 59.2 ng/mL
  Tmax: 4 h
6 mg, cycle 2, day 1, QDx3dQW 6 mg, read-out: AUC0–24h [%CV]
  AUC(0-t): 777 ng·h/mL
7 mg, cycle 1, day 1, 7 mg
  Cmax: 46.7 ng/mL
  half-life: 6.9 h
7 mg, cycle 1, day 1, 7 mg, read-out: AUC0–24h [%CV]
  AUC(0-t): 327 ng·h/mL
7 mg, cycle 2, day 1, QD 7 mg
  Cmax: 51.3 ng/mL
  Tmax: 4 h
  half-life: 5.63 h
7 mg, cycle 2, day 1, QD 7 mg, read-out: AUC0–24h [%CV]
  AUC(0-t): 351 ng·h/mL
[2]
  Cmax: 49.7 ng/mL
  half-life: 6.7 h
7 mg, cycle 2, day 1, QDx5dQW 7 mg, read-out: AUC0–24h [%CV]
  AUC(0-t): 362 ng·h/mL
7 mg, cycle 2, day 1, QW 7 mg, read-out: AUC0–24h [%CV]
  AUC(0-t): 351 ng·h/mL
7 mg, cycle 2, day 1, QW 7 mg
  half-life: 5.6 h
9 mg, cycle 1, day 1, 9 mg
  Cmax: 75.9 ng/mL
  half-life: 7.5 h
9 mg, cycle 1, day 1, 9 mg, read-out: AUC0–24h [%CV]
  AUC(0-t): 596 ng·h/mL
